{"source": "ChEMBL document CHEMBL1201861", "about": "“Genomics of Drug Sensitity in Cancer screening data, Wellcome Trust Sanger Institute”", "test_in_all_cases": "cells", "type_in_all_cases": "functional, cell-based, Homo sapiens", "key": {"HT-1376": {"system": "HT-1376", "settings": "Homo sapiens, HT-1376", "description": "SANGER: Inhibition of human HT-1376 cell growth in a cell viability assay."}, "JEG-3": {"system": "JEG-3", "settings": "Homo sapiens, JEG-3", "description": "SANGER: Inhibition of human JEG-3 cell growth in a cell viability assay."}, "NCI-H1573": {"system": "NCI-H1573", "settings": "Homo sapiens, NCI-H1573", "description": "SANGER: Inhibition of human NCI-H1573 cell growth in a cell viability assay."}, "D-423MG": {"system": "D-423MG", "settings": "Homo sapiens, D-423MG", "description": "SANGER: Inhibition of human D-423MG cell growth in a cell viability assay."}, "T84": {"system": "T84", "settings": "Homo sapiens, T84", "description": "SANGER: Inhibition of human T84 cell growth in a cell viability assay."}, "HT55": {"system": "HT55", "settings": "Homo sapiens, HT55", "description": "SANGER: Inhibition of human HT55 cell growth in a cell viability assay."}, "EPLC-272H": {"system": "EPLC-272H", "settings": "Homo sapiens, EPLC-272H", "description": "SANGER: Inhibition of human EPLC-272H cell growth in a cell viability assay."}, "SW1088": {"system": "SW1088", "settings": "Homo sapiens, SW1088", "description": "SANGER: Inhibition of human SW1088 cell growth in a cell viability assay."}, "NCI-H810": {"system": "NCI-H810", "settings": "Homo sapiens, NCI-H810", "description": "SANGER: Inhibition of human NCI-H810 cell growth in a cell viability assay."}, "BT-549": {"system": "BT-549", "settings": "Homo sapiens, BT-549", "description": "SANGER: Inhibition of human BT-549 cell growth in a cell viability assay."}, "SK-N-AS": {"system": "SK-N-AS", "settings": "Homo sapiens, SK-N-AS", "description": "SANGER: Inhibition of human SK-N-AS cell growth in a cell viability assay."}, "RO82-W-1": {"system": "RO82-W-1", "settings": "Homo sapiens, RO82-W-1", "description": "SANGER: Inhibition of human RO82-W-1 cell growth in a cell viability assay."}, "NB14": {"system": "NB14", "settings": "Homo sapiens, NB14", "description": "SANGER: Inhibition of human NB14 cell growth in a cell viability assay."}, "P12-Ichikawa": {"system": "P12-Ichikawa", "settings": "Homo sapiens, P12-Ichikawa"}, "CAMA-1": {"system": "CAMA-1", "settings": "Homo sapiens, CAMA-1", "description": "SANGER: Inhibition of human CAMA-1 cell growth in a cell viability assay."}, "NCI-H596": {"system": "NCI-H596", "settings": "Homo sapiens, NCI-H596", "description": "SANGER: Inhibition of human NCI-H596 cell growth in a cell viability assay."}, "NCI-H441": {"system": "NCI-H441", "settings": "Homo sapiens, NCI-H441", "description": "SANGER: Inhibition of human NCI-H441 cell growth in a cell viability assay."}, "RPMI-7951": {"system": "RPMI-7951", "settings": "Homo sapiens, RPMI-7951", "description": "SANGER: Inhibition of human RPMI-7951 cell growth in a cell viability assay."}, "HT-29": {"system": "HT-29", "settings": "Homo sapiens, HT-29", "description": "SANGER: Inhibition of human HT-29 cell growth in a cell viability assay."}, "AGS": {"system": "AGS", "settings": "Homo sapiens, AGS", "description": "SANGER: Inhibition of human AGS cell growth in a cell viability assay."}, "UACC-62": {"system": "UACC-62", "settings": "Homo sapiens, UACC-62", "description": "SANGER: Inhibition of human UACC-62 cell growth in a cell viability assay."}, "SAS": {"system": "SAS", "settings": "Homo sapiens, SAS", "description": "SANGER: Inhibition of human SAS cell growth in a cell viability assay."}, "HLE": {"system": "HLE", "settings": "Homo sapiens, HLE", "description": "SANGER: Inhibition of human HLE cell growth in a cell viability assay."}, "MFE-280": {"system": "MFE-280", "settings": "Homo sapiens, MFE-280", "description": "SANGER: Inhibition of human MFE-280 cell growth in a cell viability assay."}, "SK-LU-1": {"system": "SK-LU-1", "settings": "Homo sapiens, SK-LU-1", "description": "SANGER: Inhibition of human SK-LU-1 cell growth in a cell viability assay."}, "BFTC-905": {"system": "BFTC-905", "settings": "Homo sapiens, BFTC-905", "description": "SANGER: Inhibition of human BFTC-905 cell growth in a cell viability assay."}, "NCI-H1792": {"system": "NCI-H1792", "settings": "Homo sapiens, NCI-H1792", "description": "SANGER: Inhibition of human NCI-H1792 cell growth in a cell viability assay."}, "Calu-3": {"system": "Calu-3", "settings": "Homo sapiens, Calu-3", "description": "SANGER: Inhibition of human Calu-3 cell growth in a cell viability assay."}, "NCI-H1993": {"system": "NCI-H1993", "settings": "Homo sapiens, NCI-H1993", "description": "SANGER: Inhibition of human NCI-H1993 cell growth in a cell viability assay."}, "RMG-I": {"system": "RMG-I", "settings": "Homo sapiens, RMG-I", "description": "SANGER: Inhibition of human RMG-I cell growth in a cell viability assay."}, "CAL-72": {"system": "CAL-72", "settings": "Homo sapiens, CAL-72", "description": "SANGER: Inhibition of human CAL-72 cell growth in a cell viability assay."}, "HCT-15": {"system": "HCT-15", "settings": "Homo sapiens, HCT-15", "description": "SANGER: Inhibition of human HCT-15 cell growth in a cell viability assay."}, "AU565": {"system": "AU565", "settings": "Homo sapiens, AU565", "description": "SANGER: Inhibition of human AU565 cell growth in a cell viability assay."}, "NCI-H2342": {"system": "NCI-H2342", "settings": "Homo sapiens, NCI-H2342", "description": "SANGER: Inhibition of human NCI-H2342 cell growth in a cell viability assay."}, "NCI-H2122": {"system": "NCI-H2122", "settings": "Homo sapiens, NCI-H2122", "description": "SANGER: Inhibition of human NCI-H2122 cell growth in a cell viability assay."}, "SW948": {"system": "SW948", "settings": "Homo sapiens, SW948", "description": "SANGER: Inhibition of human SW948 cell growth in a cell viability assay."}, "COR-L105": {"system": "COR-L105", "settings": "Homo sapiens, COR-L105", "description": "SANGER: Inhibition of human COR-L105 cell growth in a cell viability assay."}, "BEN": {"system": "BEN", "settings": "Homo sapiens, BEN", "description": "SANGER: Inhibition of human BEN cell growth in a cell viability assay."}, "NCI-H661": {"system": "NCI-H661", "settings": "Homo sapiens, NCI-H661", "description": "SANGER: Inhibition of human NCI-H661 cell growth in a cell viability assay."}, "UMC-11": {"system": "UMC-11", "settings": "Homo sapiens, UMC-11", "description": "SANGER: Inhibition of human UMC-11 cell growth in a cell viability assay."}, "HSC-2": {"system": "HSC-2", "settings": "Homo sapiens, HSC-2", "description": "SANGER: Inhibition of human HSC-2 cell growth in a cell viability assay."}, "NCI-H2009": {"system": "NCI-H2009", "settings": "Homo sapiens, NCI-H2009", "description": "SANGER: Inhibition of human NCI-H2009 cell growth in a cell viability assay."}}, "data": [{"smiles": "Cc1cn(-c2cc(NC(=O)c3ccc(C)c(Nc4nccc(-c5cccnc5)n4)c3)cc(C(F)(F)F)c2)cn1", "note": "[NILOTINIB]", "values": [{"measurement": "IC50", "setting": "HT-1376", "value": "> 2", "unit": "µM"}, {"measurement": "IC50", "setting": "JEG-3", "value": "> 2", "unit": "µM"}, {"measurement": "IC50", "setting": "NCI-H1573", "value": "> 2", "unit": "µM"}, {"measurement": "IC50", "setting": "D-423MG", "value": "> 2", "unit": "µM"}, {"measurement": "IC50", "setting": "T84", "value": "> 2", "unit": "µM"}, {"measurement": "IC50", "setting": "HT55", "value": "> 2", "unit": "µM"}, {"measurement": "IC50", "setting": "EPLC-272H", "value": "> 2", "unit": "µM"}, {"measurement": "IC50", "setting": "SW1088", "value": "> 2", "unit": "µM"}, {"measurement": "IC50", "setting": "NCI-H810", "value": "> 2", "unit": "µM"}, {"measurement": "IC50", "setting": "BT-549", "value": "> 2", "unit": "µM"}, {"measurement": "IC50", "setting": "SK-N-AS", "value": "> 2", "unit": "µM"}, {"measurement": "IC50", "setting": "RO82-W-1", "value": "> 2", "unit": "µM"}, {"measurement": "IC50", "setting": "NB14", "value": "> 2", "unit": "µM"}, {"measurement": "IC50", "setting": "P12-Ichikawa", "value": "> 2", "unit": "µM"}, {"measurement": "IC50", "setting": "CAMA-1", "value": "> 2", "unit": "µM"}, {"measurement": "IC50", "setting": "NCI-H596", "value": "> 2", "unit": "µM"}, {"measurement": "IC50", "setting": "NCI-H441", "value": "> 2", "unit": "µM"}, {"measurement": "IC50", "setting": "RPMI-7951", "value": "> 2", "unit": "µM"}, {"measurement": "IC50", "setting": "HT-29", "value": "> 2", "unit": "µM"}, {"measurement": "IC50", "setting": "AGS", "value": "> 2", "unit": "µM"}, {"measurement": "IC50", "setting": "UACC-62", "value": "> 2", "unit": "µM"}, {"measurement": "IC50", "setting": "SAS", "value": "> 2", "unit": "µM"}, {"measurement": "IC50", "setting": "HLE", "value": "> 2", "unit": "µM"}, {"measurement": "IC50", "setting": "MFE-280", "value": "> 2", "unit": "µM"}, {"measurement": "IC50", "setting": "SK-LU-1", "value": "> 2", "unit": "µM"}, {"measurement": "IC50", "setting": "BFTC-905", "value": "> 2", "unit": "µM"}, {"measurement": "IC50", "setting": "NCI-H1792", "value": "> 2", "unit": "µM"}, {"measurement": "IC50", "setting": "Calu-3", "value": "> 2", "unit": "µM"}, {"measurement": "IC50", "setting": "NCI-H1993", "value": "> 2", "unit": "µM"}, {"measurement": "IC50", "setting": "RMG-I", "value": "> 2", "unit": "µM"}, {"measurement": "IC50", "setting": "CAL-72", "value": "> 2", "unit": "µM"}, {"measurement": "IC50", "setting": "HCT-15", "value": "> 2", "unit": "µM"}, {"measurement": "IC50", "setting": "AU565", "value": "> 2", "unit": "µM"}, {"measurement": "IC50", "setting": "NCI-H2342", "value": "> 2", "unit": "µM"}, {"measurement": "IC50", "setting": "NCI-H2122", "value": "> 2", "unit": "µM"}, {"measurement": "IC50", "setting": "SW948", "value": "> 2", "unit": "µM"}, {"measurement": "IC50", "setting": "COR-L105", "value": "> 2", "unit": "µM"}, {"measurement": "IC50", "setting": "BEN", "value": "> 2", "unit": "µM"}, {"measurement": "IC50", "setting": "NCI-H661", "value": "> 2", "unit": "µM"}, {"measurement": "IC50", "setting": "UMC-11", "value": "> 2", "unit": "µM"}, {"measurement": "IC50", "setting": "HSC-2", "value": "> 2", "unit": "µM"}, {"measurement": "IC50", "setting": "NCI-H2009", "value": "> 2", "unit": "µM"}]}, {"smiles": "Nc1cccc2c1CN(C1CCC(=O)NC1=O)C2=O", "note": "(centres undefined) [LENALIDOMIDE]", "values": [{"measurement": "IC50", "setting": "HT-1376", "value": "> 5", "unit": "µM"}, {"measurement": "IC50", "setting": "JEG-3", "value": "> 5", "unit": "µM"}, {"measurement": "IC50", "setting": "NCI-H1573", "value": "> 5", "unit": "µM"}, {"measurement": "IC50", "setting": "D-423MG", "value": "> 5", "unit": "µM"}, {"measurement": "IC50", "setting": "T84", "value": "> 5", "unit": "µM"}, {"measurement": "IC50", "setting": "HT55", "value": "> 5", "unit": "µM"}, {"measurement": "IC50", "setting": "EPLC-272H", "value": "> 5", "unit": "µM"}, {"measurement": "IC50", "setting": "SW1088", "value": "> 5", "unit": "µM"}, {"measurement": "IC50", "setting": "NCI-H810", "value": "> 5", "unit": "µM"}, {"measurement": "IC50", "setting": "BT-549", "value": "> 5", "unit": "µM"}, {"measurement": "IC50", "setting": "SK-N-AS", "value": "> 5", "unit": "µM"}, {"measurement": "IC50", "setting": "RO82-W-1", "value": "> 5", "unit": "µM"}, {"measurement": "IC50", "setting": "NB14", "value": "> 5", "unit": "µM"}, {"measurement": "IC50", "setting": "P12-Ichikawa", "value": "> 5", "unit": "µM"}, {"measurement": "IC50", "setting": "CAMA-1", "value": "> 5", "unit": "µM"}, {"measurement": "IC50", "setting": "NCI-H596", "value": "> 5", "unit": "µM"}, {"measurement": "IC50", "setting": "NCI-H441", "value": "> 5", "unit": "µM"}, {"measurement": "IC50", "setting": "RPMI-7951", "value": "> 5", "unit": "µM"}, {"measurement": "IC50", "setting": "HT-29", "value": "> 5", "unit": "µM"}, {"measurement": "IC50", "setting": "AGS", "value": "> 5", "unit": "µM"}, {"measurement": "IC50", "setting": "UACC-62", "value": "> 5", "unit": "µM"}, {"measurement": "IC50", "setting": "SAS", "value": "> 5", "unit": "µM"}, {"measurement": "IC50", "setting": "HLE", "value": "> 5", "unit": "µM"}, {"measurement": "IC50", "setting": "MFE-280", "value": "> 5", "unit": "µM"}, {"measurement": "IC50", "setting": "SK-LU-1", "value": "> 5", "unit": "µM"}, {"measurement": "IC50", "setting": "BFTC-905", "value": "> 5", "unit": "µM"}, {"measurement": "IC50", "setting": "NCI-H1792", "value": "> 5", "unit": "µM"}, {"measurement": "IC50", "setting": "Calu-3", "value": "> 5", "unit": "µM"}, {"measurement": "IC50", "setting": "NCI-H1993", "value": "> 5", "unit": "µM"}, {"measurement": "IC50", "setting": "RMG-I", "value": "> 5", "unit": "µM"}, {"measurement": "IC50", "setting": "CAL-72", "value": "> 5", "unit": "µM"}, {"measurement": "IC50", "setting": "HCT-15", "value": "> 5", "unit": "µM"}, {"measurement": "IC50", "setting": "AU565", "value": "> 5", "unit": "µM"}, {"measurement": "IC50", "setting": "NCI-H2342", "value": "> 5", "unit": "µM"}, {"measurement": "IC50", "setting": "NCI-H2122", "value": "> 5", "unit": "µM"}, {"measurement": "IC50", "setting": "SW948", "value": "> 5", "unit": "µM"}, {"measurement": "IC50", "setting": "COR-L105", "value": "> 5", "unit": "µM"}, {"measurement": "IC50", "setting": "BEN", "value": "> 5", "unit": "µM"}, {"measurement": "IC50", "setting": "NCI-H661", "value": "> 5", "unit": "µM"}, {"measurement": "IC50", "setting": "UMC-11", "value": "> 5", "unit": "µM"}, {"measurement": "IC50", "setting": "HSC-2", "value": "> 5", "unit": "µM"}, {"measurement": "IC50", "setting": "NCI-H2009", "value": "> 5", "unit": "µM"}]}]}
